This note sets out measurements from ChEMBL document CHEMBL3272135, “Quantitative relationships between steroid structure and binding to putative progesterone receptors” (J Med Chem, 1977).

SMILES strings stand for the structures.

The target of experiment [1] is T1, Progesterone receptor (Ovis aries) (UniProt Q28590).
T1 sequence (whole entry): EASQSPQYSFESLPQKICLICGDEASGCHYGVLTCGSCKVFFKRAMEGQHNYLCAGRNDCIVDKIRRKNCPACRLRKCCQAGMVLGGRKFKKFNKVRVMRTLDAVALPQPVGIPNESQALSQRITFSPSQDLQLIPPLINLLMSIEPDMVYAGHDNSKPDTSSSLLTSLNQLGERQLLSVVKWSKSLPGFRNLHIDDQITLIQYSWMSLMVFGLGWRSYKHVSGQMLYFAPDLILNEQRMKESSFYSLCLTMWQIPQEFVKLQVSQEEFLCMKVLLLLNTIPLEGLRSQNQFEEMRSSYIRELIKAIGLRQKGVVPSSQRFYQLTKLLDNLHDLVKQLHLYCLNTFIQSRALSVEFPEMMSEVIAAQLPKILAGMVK
Briefly: Relative binding affinity to sheep progesterone receptor.

Experiment [2] deals with T2, Progesterone receptor (Homo sapiens) (UniProt P06401).
T2 sequence (whole entry): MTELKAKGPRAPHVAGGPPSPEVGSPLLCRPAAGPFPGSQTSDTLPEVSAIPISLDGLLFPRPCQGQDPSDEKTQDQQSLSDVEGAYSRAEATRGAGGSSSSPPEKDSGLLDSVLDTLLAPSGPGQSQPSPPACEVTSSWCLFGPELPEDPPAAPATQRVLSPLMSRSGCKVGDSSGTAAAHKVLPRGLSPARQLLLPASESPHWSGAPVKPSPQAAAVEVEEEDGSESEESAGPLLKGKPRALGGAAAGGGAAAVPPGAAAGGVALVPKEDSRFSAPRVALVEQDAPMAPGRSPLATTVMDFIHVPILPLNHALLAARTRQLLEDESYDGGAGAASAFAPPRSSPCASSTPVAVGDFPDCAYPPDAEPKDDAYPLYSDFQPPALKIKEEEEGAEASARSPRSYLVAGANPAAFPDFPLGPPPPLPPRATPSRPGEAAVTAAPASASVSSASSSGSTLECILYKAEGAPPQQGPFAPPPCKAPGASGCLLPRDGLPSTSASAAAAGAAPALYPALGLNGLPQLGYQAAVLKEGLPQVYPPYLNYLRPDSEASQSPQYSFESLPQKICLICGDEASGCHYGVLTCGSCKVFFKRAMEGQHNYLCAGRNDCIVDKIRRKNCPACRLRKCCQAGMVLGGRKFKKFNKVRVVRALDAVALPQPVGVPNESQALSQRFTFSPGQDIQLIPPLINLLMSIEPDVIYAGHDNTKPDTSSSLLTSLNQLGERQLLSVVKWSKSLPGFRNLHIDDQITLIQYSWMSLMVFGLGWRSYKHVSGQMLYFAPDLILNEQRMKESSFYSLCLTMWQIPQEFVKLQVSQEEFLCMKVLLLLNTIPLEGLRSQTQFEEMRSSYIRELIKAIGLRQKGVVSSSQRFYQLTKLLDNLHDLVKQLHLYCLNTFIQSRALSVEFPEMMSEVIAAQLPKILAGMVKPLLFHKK

The species named for another experiment is Cavia porcellus. In words: Relative binding affinity to guinea pig progesterone receptor.
Experiment [3] deals with T3, Progesterone receptor (Oryctolagus cuniculus) (UniProt P06186).
T3 sequence (whole entry): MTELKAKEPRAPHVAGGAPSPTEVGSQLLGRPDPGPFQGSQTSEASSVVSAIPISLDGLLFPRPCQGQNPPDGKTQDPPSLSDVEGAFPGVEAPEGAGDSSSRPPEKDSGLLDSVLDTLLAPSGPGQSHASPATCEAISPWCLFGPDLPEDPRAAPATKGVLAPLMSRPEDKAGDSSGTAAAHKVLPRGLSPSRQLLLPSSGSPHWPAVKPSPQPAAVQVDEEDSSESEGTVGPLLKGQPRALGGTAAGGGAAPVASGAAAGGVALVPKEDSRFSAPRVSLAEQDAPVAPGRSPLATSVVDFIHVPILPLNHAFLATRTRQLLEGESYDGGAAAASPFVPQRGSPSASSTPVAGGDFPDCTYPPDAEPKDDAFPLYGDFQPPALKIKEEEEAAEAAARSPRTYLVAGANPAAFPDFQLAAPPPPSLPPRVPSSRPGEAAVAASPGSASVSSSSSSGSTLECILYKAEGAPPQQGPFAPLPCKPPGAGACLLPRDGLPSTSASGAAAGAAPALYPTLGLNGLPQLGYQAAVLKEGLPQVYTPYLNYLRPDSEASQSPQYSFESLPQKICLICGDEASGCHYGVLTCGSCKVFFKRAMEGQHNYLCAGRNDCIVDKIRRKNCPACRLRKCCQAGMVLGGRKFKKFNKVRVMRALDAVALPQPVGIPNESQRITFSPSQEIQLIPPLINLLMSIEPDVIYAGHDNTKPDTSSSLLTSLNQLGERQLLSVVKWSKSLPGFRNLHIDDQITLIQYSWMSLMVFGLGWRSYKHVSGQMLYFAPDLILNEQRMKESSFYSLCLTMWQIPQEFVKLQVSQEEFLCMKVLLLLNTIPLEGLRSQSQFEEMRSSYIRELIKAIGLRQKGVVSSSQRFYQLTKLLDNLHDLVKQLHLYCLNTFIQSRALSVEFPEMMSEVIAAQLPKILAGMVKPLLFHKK
Briefly: Relative binding affinity to rabbit progesterone receptor.

As to `CC[C@@H]1C[C@H]2[C@@H]3C=CC4=CC(=O)CC[C@@H]4[C@H]3CC[C@]2(C)[C@H]1C(=O)CF`, the log(RBA) in experiment [1] was 2.13; in experiment [2] it was 2.15; in the experiment filed under Cavia porcellus it was 1.17; in experiment [3], 2.24.
Turning to `C[C@]1(O)CC[C@H]2[C@@H]3CCC4=CCCC[C@@H]4[C@H]3CC[C@@]21C`, the log(RBA) in experiment [1] amounted to 0.778; in experiment [2], 0.78; in the experiment listed under Cavia porcellus, 0.3; in experiment [3] it was 1.3.
The like results for `CC(=O)[C@H]1CC[C@H]2[C@@H]3CCC4=CC(=O)CC[C@]4(C)[C@H]3[C@H](O)C[C@]12C` were, in that order, -0.15, 0.48, -0.097 and 0.301.
`C[C@]12C[C@H](O)[C@H]3[C@@H](CCC4=CC(=O)CC[C@@]43C)[C@@H]1CC[C@@H]2C(=O)CO`: the log(RBA) in experiment [1] amounted to 0; in experiment [2], 0.3; in the experiment listed under Cavia porcellus, 0.447; in experiment [3] it was 0.02.
The like results for `CC(=O)O[C@]1(C(C)=O)CC[C@H]2[C@@H]3CCC4=CC(=O)CC[C@]4(C)[C@H]3CC[C@@]21C` were, in that order, 1.6, 1.83, -0.7 and 1.72.
As for `CC(=O)O[C@]1(C(C)=O)CC[C@H]2[C@@H]3C=C(Cl)C4=CC(=O)CC[C@]4(C)[C@H]3CC[C@@]21C`, the log(RBA) in experiment [1] was 1.78; in experiment [2], 2.08; in the experiment filed under Cavia porcellus, -0.097; in experiment [3], 2.16.
Taken in the same sequence, the figures for `CC(=O)[C@@]12O[C@@H]1C[C@H]1[C@@H]3CCC4=CC(=O)CC[C@]4(C)[C@H]3CC[C@@]12C` were -0.52, 0, -0.046 and -0.097.
With `CC(=O)[C@H]1CC[C@H]2[C@@H]3CC[C@H]4CC(=O)CC[C@]4(C)[C@H]3CC[C@]12C`, the log(RBA) in experiment [1] is 1.48; in experiment [2], 1.48; in the experiment filed under Cavia porcellus, 1.4; in experiment [3], 1.74.
Regarding `C#C[C@]1(O)CC[C@H]2[C@@H]3CCC4=C(CCC(=O)C4)[C@H]3CC[C@@]21C`, the log(RBA) amounted to 0.845 in experiment [1], 1.34 in experiment [2], 3 in the experiment listed under Cavia porcellus and 1.56 in experiment [3].
Consider `C[C@]12CCC(=O)C=C1CC[C@@H]1[C@@H]2[C@@H](O)C[C@@]2(C)[C@H]1CC[C@]2(O)C(=O)CO`, for which the log(RBA) in experiment [1] was -1.3; in experiment [2], -1; in the experiment listed under Cavia porcellus, -1; in experiment [3], -1.
As for `CC[C@@H]1C[C@H]2[C@@H]3CCC4=CC(=O)CC[C@@H]4[C@H]3CC[C@]2(C)[C@H]1C(=O)CF`, the log(RBA) in experiment [1] is 2.08; in experiment [2], 2.23; in the experiment filed under Cavia porcellus it was 1.6; in experiment [3] it was 2.36.
As for `CC(=O)O[C@]1(C(C)=O)CC[C@H]2[C@@H]3C[C@H](C)C4=CC(=O)CC[C@]4(C)[C@H]3CC[C@@]21C`, the log(RBA) in experiment [1] was 1.86; in experiment [2], 2.29; in the experiment listed under Cavia porcellus, 1.11; in experiment [3], 2.
`C#C[C@]1(OC(C)=O)CC[C@H]2[C@@H]3CCC4=CCCC[C@@H]4[C@H]3CC[C@@]21C`: the log(RBA) in experiment [1] is -1; in experiment [2], -0.7; in the experiment filed under Cavia porcellus it was -2; in experiment [3] it was 0.
As for `CC(=O)[C@H]1CC[C@H]2[C@@H]3CCC4=CC(=O)CC[C@]4(C)[C@H]3C(=O)C[C@]12C`, the log(RBA) was -0.097 in experiment [1], 0 in experiment [2], 0 in the experiment listed under Cavia porcellus and 0.301 in experiment [3].
Regarding `C#C[C@]1(O)CC[C@H]2[C@H]3[C@H](CC[C@@]21C)[C@H]1CCCC=C1C[C@H]3C`, the log(RBA) is 0.301 in experiment [1], 0.3 in experiment [2], -0.7 in the experiment filed under Cavia porcellus and 0.954 in experiment [3].
With `CC(=O)O[C@]1(C(C)=O)CC[C@H]2[C@@H]3CCC4=C(O)C(=O)CC[C@]4(C)[C@H]3CC[C@@]21C`, the log(RBA) is 1.2 in experiment [1], 1.62 in experiment [2], -0.4 in the experiment listed under Cavia porcellus and 1.77 in experiment [3].
`CC(=O)[C@H]1CC[C@H]2[C@@H]3CCC4=CC(=O)CC[C@]4(C)[C@H]3CC(=O)[C@]12C`: the log(RBA) in experiment [1] was -1; in experiment [2], -0.69; in the experiment listed under Cavia porcellus, -0.52; in experiment [3], -0.221.
For the molecule `C[C@]12CCC(=O)C=C1CC[C@@H]1[C@@H]2CC[C@]2(C)C(=O)CC[C@@H]12`, the log(RBA) is -1 in experiment [1], -1 in experiment [2], -0.7 in the experiment filed under Cavia porcellus and -1 in experiment [3].
Take `CC(=O)[C@H]1CC[C@H]2[C@@H]3CCC4=CC(=O)CC[C@]4(CO)[C@H]3CC[C@]12C`: the log(RBA) in experiment [1] was -0.52; in experiment [2], -0.52; in the experiment filed under Cavia porcellus, -0.22; in experiment [3], -0.301.
As for `C#C[C@]1(O)CC[C@H]2[C@@H]3CC[C@H]4C[C@H](O)CC[C@@H]4[C@H]3CC[C@@]21C`, the log(RBA) in experiment [1] is -1.52; in experiment [2], -1; in the experiment listed under Cavia porcellus it was -2; in experiment [3] it was -1.
For the molecule `CC[C@]12CC[C@H]3[C@@H](CCC4=CC(=O)CC[C@@]43C)[C@@H]1CC[C@@H]2C(C)=O`, the log(RBA) in experiment [1] worked out at 1.04; in experiment [2], 1.43; in the experiment listed under Cavia porcellus it was 1.63; in experiment [3], 1.5.
Regarding `C#C[C@]1(O)CC[C@H]2[C@@H]3CC=C4CCCC[C@@H]4[C@H]3CC[C@@]21C`, the log(RBA) in experiment [1] is -0.7; in experiment [2] it was -1; in the experiment listed under Cavia porcellus, -1.15; in experiment [3] it was -0.523.
For `CC(=O)[C@@]12[C@@H](C[C@H]3[C@@H]4CCC5=CC(=O)CC[C@]5(C)[C@H]4CC[C@@]31C)C2(C)C`, the log(RBA) in experiment [1] was determined as 1.9; in experiment [2] it was 2.11; in the experiment filed under Cavia porcellus it was 1; in experiment [3], 2.38.
For the molecule `C[C@]12CC[C@H]3[C@@H](CCC4=CC(=O)CC[C@@H]43)[C@@H]1CC[C@@H]2O`, the log(RBA) is 1 in experiment [1], 1.14 in experiment [2], 1.6 in the experiment listed under Cavia porcellus and 1 in experiment [3].
On to `C#C[C@]1(O)CC[C@H]2[C@@H]3CC[C@@H]4C[C@H](O)CC[C@@H]4[C@H]3CC[C@@]21C`, for which the log(RBA) in experiment [1] was -2; in experiment [2] it was -1; in the experiment filed under Cavia porcellus, -2; in experiment [3], -1.
For the molecule `C#C[C@]1(O)CC[C@H]2[C@@H]3CCC4=CC(=O)CC[C@@H]4[C@H]3[C@@H](Cl)C[C@@]21C`, the log(RBA) in experiment [1] was determined as 2.06; in experiment [2], 2.11; in the experiment filed under Cavia porcellus, 1.48; in experiment [3] it was 2.32.
